Measurements: article PMC9814900 (Communications Chemistry, 2022)
Numbered stars: 1 amine (or outer) side, 2 acyl side, 3 side chain; on linkers, the order of the positions; unused ones are H or OH. Bridge positions count the residues as written; N and C are the ends. Peptide text beside a SMILES is read from it. * marks the point of attachment. Biotin = O=C1N[C@H]2[C@H](CS[C@H]2CCCCC(=O)*)N1; C6F4(1,4-diyl) = Fc1c(F)c([*:2])c(F)c(F)c1[*:1]; PEG4 = NCCOCCOCCOCCOCCC(=O)O

How the values were obtained:
[1] = Serum stability assay; format: in vitro ADME; details: 10 µM peptide, 25% human serum in 1x PBS (v/v); 0 min-24 h; TCA precipitation; LC-MS EIC peak area; first-order fit; three experiments; read-out: Half-life (t1/2) in serum
Description: To assess the stability of stapled peptides, we performed a serum stability assay (Supplementary Fig. 6)[31],[36],[37]. Three stapled peptides were selected for assessment. […]
10 µM peptide were incubated with 25% human serum in buffer 1x PBS (v/v). At each time point (0 min, 5 min, 10 min, 30 min, 1 h, 2 h, 4 h, 8 h, 12h and 24 h), the mixture was sampled, treated with 10% trichloroacetic acid, and centrifuged at 12,000 g to remove serum proteins. The supernatant was acidified with 0.2% formic acid in water (v/v) and subjected to LC-MS analysis. The percentage of peptides (Y-axis) was calculated as the ratio of peak area in extracted ion chromatogram (EIC). Three experiments were carried out. The serum digestion curve was plotted using Prism8 software. The half-life of each peptide was calculated by fitted the digestion curve with the first order kinetic equation: ሾXሿ௧ ൌ ሾXሿ଴ ൈeି௞௧ , ሾXሿ is the remaining peptide percentage, t is the time in min. Half-life was calculated as tଵ/ଶ ൌሺln 2ሻ/k .

[2] = biological target: T1, SUMO-25-109MDM2 (Homo sapiens, UniProt Q00987); test: Direct BLI binding assay of immobilised biotinylated peptides; details: biotin-PEG4-peptide on streptavidin sensor, SUMO-25-109MDM2 4-500 nM, global 1:1 fit
T1 construct: the ^25-109MDM2 gene was purchased from Addgene; made in house; host or cells: E. coli Rosetta (DE3) pLysS
Description: 6. Supplementary Methods 4: Binding validation by bio-layer interferometry 6.1 Methods for BLI assay
In vitro binding assay was performed using ForteBio Octet RED96 BLI system (Octet RED96). In a typical experiment, the streptavidin (SA) tips were dipped in 200 µL biotinylated- peptide solution (2.0 μM in PBS with 0.02% Tween 20 and 1 mg/mL BSA) for the loading step. The loaded tips were then dipped in the sample wells for association curves. Buffer-only condition were used as reference for background subtraction. After association, the tips were dipped in blocking buffer (1x PBS, 0.02% Tween 20, 1 mg/mL BSA) to obtain dissociation curve. The association and dissociation curves were fitted by the global fitting algorithm, under binding model 1:1 to obtain the binding response value (R) in nm.
Streptavidin sensors were soaked in blocking buffer for 5 min. After immobilizing the PEG4-biotinylated peptide (100 nM of Biotin-PEG4-peptide) onto streptavidin sensors, serial dilutions of SUMO-25-109MDM2 in blocking buffer were analyzed for binding (500 nM, 250 nM, 125 nM, 63nM, 32 nM, 16 nM, 8 nM and 4 nM. The response was recorded at equilibrium after 2 min.

[3] = biological target: T1, SUMO-25-109MDM2; test: In-solution competition assay by biolayer interferometry (BLI); format: binding; details: supplementary binding validation; averaged over three measurements; ~30-100 nM SUMO-25-109MDM2 as given per peptide; read-out: Averaged KD, competition BLI assay
[4] = biological target: 14-3-3σ; details: previously characterized binder; cited from earlier work
Text: The epitope used for 12ca5 has the sequence […]; the previously characterized protein 14-3-3σ binder 14-3-3.6 was used for 14-3-3σ and its sequence can be found in Fig. 6b. A beta-alanine spacer was used between the library construct and the C-terminal lysine. […]

[5] = biological target: antibody 12ca5; details: stated for the epitope without method; ref not given; cited from earlier work
Text: The epitope used for 12ca5 has the sequence […]; the previously characterized protein 14-3-3σ binder 14-3-3.6 was used for 14-3-3σ and its sequence can be found in Fig. 6b. A beta-alanine spacer was used between the library construct and the C-terminal lysine.

CC(C)C[C@H](NC(=O)[C@H](CC(N)=O)NC(=O)[C@H](Cc1c[nH]c2ccccc12)NC(=O)[C@H](Cc1ccc(O)cc1)NC(=O)[C@H](CCC(=O)O)NC(=O)[C@H](C)NC(=O)[C@H](Cc1ccccc1)NC(=O)[C@H](CO)NC(=O)[C@@H](N)[C@@H](C)O)C(=O)N[C@@H](CC(C)C)C(=O)N[C@@H](CO)C(=O)N1CCC[C@H]1C(N)=O [PMI, reference compound] (H-TSFAEYWNLLSP-NH2) showed a half-life at 10 µM [1] of 2.2 min.
In the case of CC(C)C[C@H](NC(=O)[C@H](C)NC(=O)[C@H](C)NC(=O)[C@H](Cc1c[nH]c2ccccc12)NC(=O)[C@H](Cc1ccc(O)cc1)NC(=O)[C@H](C)NC(=O)[C@H](C)NC(=O)[C@H](Cc1ccccc1)NC(=O)[C@H](C)NC(=O)[C@@H](NC(=O)CCOCCOCCOCCOCCNC(=O)CCCC[C@@H]1SC[C@@H]2NC(=O)N[C@@H]21)[C@@H](C)O)C(=O)N[C@@H](C)C(=O)N[C@@H](C)C(=O)N[C@@H](CCCCN)C(N)=O [Peptide 32-biotin] ({Biotin-PEG4}-TAFAAYWAALAAK-NH2), the koff [2] is reported as 0.00981 s⁻¹ and the kon [2] is reported as 633000 M⁻¹ s⁻¹.
CC(C)C[C@H](NC(=O)[C@H](C)NC(=O)[C@H](C)NC(=O)[C@H](Cc1c[nH]c2ccccc12)NC(=O)[C@H](Cc1ccc(O)cc1)NC(=O)[C@H](C)NC(=O)[C@H](C)NC(=O)[C@H](Cc1ccccc1)NC(=O)[C@H](C)NC(=O)[C@@H](N)[C@@H](C)O)C(=O)N[C@@H](C)C(=O)N[C@@H](C)C(=O)N[C@@H](CCCCN)C(N)=O [Peptide 32] (H-TAFAAYWAALAAK-NH2) gave a half-life at 10 µM [1] of 3.9 min.
Molecule CC(C)C[C@H](NC(=O)[C@H](C)NC(=O)[C@H](C)NC(=O)[C@H](Cc1c[nH]c2ccccc12)NC(=O)[C@H](Cc1ccc(O)cc1)NC(=O)[C@H](C)NC(=O)[C@H](C)NC(=O)[C@H](Cc1ccccc1)NC(=O)[C@H](CO)NC(=O)[C@H](C)NC(=O)CCOCCOCCOCCOCCNC(=O)CCCC[C@@H]1SC[C@@H]2NC(=O)N[C@@H]21)C(=O)N[C@@H](C)C(=O)N[C@@H](C)C(=O)N[C@@H](CCCCN)C(N)=O [Peptide 33-biotin] ({Biotin-PEG4}-ASFAAYWAALAAK-NH2) has a koff [2] of 0.0107 s⁻¹ and a kon [2] of 170000 M⁻¹ s⁻¹.
With CC(C)C[C@H](NC(=O)[C@H](C)NC(=O)[C@H](C)NC(=O)[C@H](Cc1c[nH]c2ccccc12)NC(=O)[C@H](Cc1ccc(O)cc1)NC(=O)[C@H](C)NC(=O)[C@H](C)NC(=O)[C@H](Cc1ccccc1)NC(=O)[C@H](C)NC(=O)[C@H](C)NC(=O)CCOCCOCCOCCOCCNC(=O)CCCC[C@@H]1SC[C@@H]2NC(=O)N[C@@H]21)C(=O)N[C@@H](C)C(=O)N[C@@H](C)C(=O)N[C@@H](CCCCN)C(N)=O [Peptide 34-biotin] ({Biotin-PEG4}-AAFAAYWAALAAK-NH2) the koff [2] was 0.0102 s⁻¹ and the kon [2] was 824000 M⁻¹ s⁻¹.
In the case of CC(C)C[C@H](NC(=O)[C@H](C)NC(=O)[C@H](C)NC(=O)[C@H](Cc1c[nH]c2ccccc12)NC(=O)[C@H](Cc1ccc(O)cc1)NC(=O)[C@H](C)NC(=O)[C@H](C)NC(=O)[C@H](Cc1ccccc1)NC(=O)[C@H](C)NC(=O)[C@H](C)N)C(=O)N[C@@H](C)C(=O)N[C@@H](C)C(=O)N[C@@H](CCCCN)C(N)=O [Peptide 34] (H-AAFAAYWAALAAK-NH2), the half-life at 10 µM [1] is reported as 5.1 min.
Work on CC(C)C[C@H](NC(=O)[C@H](C)NC(=O)[C@@H]1CSc2c(F)c(F)c(c(F)c2F)SC[C@H](NC(=O)[C@H](Cc2ccccc2)NC(=O)[C@H](CO)NC(=O)[C@H](C)N)C(=O)N[C@@H](CCC(=O)O)C(=O)N[C@@H](Cc2ccc(O)cc2)C(=O)N[C@@H](Cc2c[nH]c3ccccc23)C(=O)N1)C(=O)N[C@@H](C)C(=O)N[C@@H](C)C(N)=O [Peptide 36] (H-ASFCEYWCALAA-NH2; linker 4-8 via C6F4(1,4-diyl)) yielded a Kd [3] of 4.4 ± 1.9 nM and a half-life at 10 µM [1] of 26 min.
For CC(C)C[C@H](NC(=O)[C@@H]1CSc2c(F)c(F)c(c(F)c2F)SC[C@H](NC(=O)[C@H](C)NC(=O)[C@H](Cc2ccccc2)NC(=O)[C@H](CO)NC(=O)[C@H](C)N)C(=O)N[C@@H](Cc2ccc(O)cc2)C(=O)N[C@@H](Cc2c[nH]c3ccccc23)C(=O)N[C@@H](C)C(=O)N1)C(=O)N[C@@H](CO)C(=O)N[C@@H](C)C(N)=O [Peptide 38] (H-ASFACYWACLSA-NH2; linker 5-9 via C6F4(1,4-diyl)), the Kd [3] was 0.4 ± 0.3 nM and the half-life at 10 µM [1] was 27 min.
Work on CC(C)C[C@@H]1NC(=O)[C@H](C)NC(=O)[C@@H](NC(=O)[C@H](Cc2c[nH]c3ccccc23)NC(=O)[C@H](Cc2ccc(O)cc2)NC(=O)[C@H](CCC(=O)O)NC(=O)[C@H](C)NC(=O)[C@H](Cc2ccccc2)NC(=O)[C@H](CO)NC(=O)[C@H](C)N)CSc2c(F)c(F)c(c(F)c2F)SC[C@@H](C(N)=O)NC(=O)[C@H](C)NC1=O [Peptide 39] (H-ASFAEYWCALAC-NH2; linker 8-12 via C6F4(1,4-diyl)) yielded a Kd [3] of 3.3 ± 2.1 nM and a half-life at 10 µM [1] of 25 min.
In the case of “Cha-Cha-β-Ser-Orn-pSer-Nph-β-Ser-β-Ser-Nph [Peptide 14-3-3.6]”, the Kd [4] is listed as 3 nM.
In the case of YPYDVPDYA, the Kd [5] is given as 4 nM.
